Data: the supplement of paper PMC10307832

Key:
Experiment in all cases: relative viability (nuclei count vs DMSO), 5 days (fraction); higher = more cells survive
RO-3306 + Bortezomib = compound: C1=CC2=C(C=CC(=C2)C=C3C(=O)NC(=NCC4=CC=CS4)S3)N=C1 [RO-3306] + CC(C)C[C@H](NC(=O)[C@H](Cc1ccccc1)NC(=O)c1cnccn1)B(O)O [Bortezomib] (partner 0.002 µM)
In short: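 Relative viability equals treated-well nuclei counts divided by vehicle-well nuclei counts. Counts came from 4× images of lung cancer cell lines grown in 1536-well plates for 5 days after pin-tool dosing on the day after seeding. Dosing used one drug alone or a fixed anchor-drug dose plus five library-drug doses (not always all listed) in √10 steps, and values are medians of duplicate plates.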

[1] = compound: O=S(=O)(c1ccccc1)N(CC(F)(F)F)c1ccc(C(O)(C(F)(F)F)C(F)(F)F)cc1
In short: (§1)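 Five library-drug doses, separated by factors of √10, were pinned into 1536-well plates holding lung cancer cell lines after an overnight stay at 37 °C. Cells were fixed, permeabilised and Hoechst-stained in one step after 5 days without medium change, then imaged at 4×. Viability compares treated-well with vehicle-well nuclei, counted in MetaXpress, as a median across plates. Passing plates had control CV below 25% and at least one doubling.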

Foretinib = compound: COc1cc2c(Oc3ccc(NC(=O)C4(C(=O)Nc5ccc(F)cc5)CC4)cc3F)ccnc2cc1OCCCN1CCOCC1 [Foretinib] (anchor plate); details: 0.25 µM
In short: as §1

RO-3306 = compound: C1=CC2=C(C=CC(=C2)C=C3C(=O)NC(=NCC4=CC=CS4)S3)N=C1 [RO-3306]
In short: as §1

Cell Line	relative viability (RO-3306 + Bortezomib; first compound 0.01 µM)	relative viability (RO-3306 + Bortezomib; first compound 0.03162 µM)	relative viability (RO-3306 + Bortezomib; first compound 0.1 µM)	relative viability (RO-3306 + Bortezomib; first compound 0.3162 µM)	relative viability (RO-3306 + Bortezomib; first compound 1 µM)	relative viability ([1]; 0.8 µM)	relative viability ([1]; 2.53 µM)	relative viability ([1]; 8 µM)	relative viability (Foretinib)	relative viability (RO-3306; 0.01 µM)	relative viability (RO-3306; 0.03162 µM)	relative viability (RO-3306; 0.1 µM)	relative viability (RO-3306; 0.3162 µM)	relative viability (RO-3306; 1 µM)
201T	1.11	1.11	1.07	1.11	0.934	1.02	0.928	1.06	1.16	1.06	0.969	0.956	0.987	0.746
EBC-1	0.616	0.5	0.501	0.529	0.572	0.934	0.769	0.721	0.108	1.04	0.807	1.01	1.14	1.01
LCLC-97TM1	1.06	–	0.689	0.455	0.531	0.796	0.837	0.885	0.937	0.895	0.799	0.932	1.04	0.942
NCI-H522	–	–	–	–	–	1.06	0.954	1.15	–	1.09	0.867	0.827	0.875	0.962
NCI-H1395	–	–	–	–	–	0.867	0.894	0.914	1	0.895	0.869	0.729	0.887	0.707
LU99A	1.38	1.09	1.04	0.98	1.07	1.09	0.885	0.875	0.827	0.983	0.831	0.876	0.912	0.817
Calu-6	1.07	1.06	1.05	0.995	1.01	0.982	0.876	0.858	0.861	1.12	0.893	1.02	1	1.06
NCI-H2228	0.937	0.47	0.917	0.893	0.636	1.08	0.962	0.937	0.886	1.07	0.96	1.09	1	0.696
NCI-H1915	1.07	0.895	1.09	1.01	0.488	1.06	0.98	1.08	1.1	1.05	0.944	0.98	0.992	0.536
NCI-H2405	1.07	0.963	0.982	0.959	1.03	1.03	0.987	0.945	1.01	1	0.949	0.995	1.02	0.906
NCI-H661	0.817	0.738	0.84	0.829	0.935	1.04	0.982	0.971	0.971	0.995	0.951	0.978	0.963	1.06
EPLC-272H	0.735	0.526	0.825	0.769	0.843	0.942	0.929	0.982	0.723	0.866	0.73	0.921	0.901	0.791
NCI-H2023	1.01	0.795	0.979	1.13	1.07	1.11	0.885	0.766	0.893	1.18	0.803	0.901	1	0.858
NCI-H358	–	–	–	–	–	0.815	0.796	0.826	0.694	1.13	0.779	0.902	0.947	0.766
SW 900	–	–	–	–	–	0.934	0.729	0.994	0.974	0.917	0.697	0.705	0.943	0.785
LK-2	–	–	–	–	–	1.06	0.894	0.98	1.18	1.07	0.855	0.922	1.17	1.02
A549	–	–	–	–	–	1.07	0.914	0.886	0.951	1.13	0.811	0.994	1	1.05
NCI-H1793	–	–	–	–	–	0.758	0.747	0.785	0.741	1.09	0.694	0.865	0.993	1.12
NCI-H1623	–	–	–	–	–	0.928	0.836	0.856	0.899	0.99	0.909	0.958	1.08	0.844
HCC-44	0.879	0.914	0.926	0.882	0.711	0.98	0.988	0.97	–	0.985	1	1.02	0.957	0.901
NCI-H1792	1.17	–	0.95	0.991	0.538	0.79	0.724	0.858	–	0.813	–	0.824	0.908	0.782
NCI-H2342	–	–	–	–	–	1.36	0.968	0.938	1.05	1.02	0.865	0.941	0.914	0.932
